The values below come from patent US11440899B2, “Pyrimidine TBK/IKKe inhibitor compounds and uses thereof” (Merck Patent GmbH, priority 2017, dated 2022).

Assay [1] deals with IKKe (Homo sapiens (Human), UniProt Q14164). Put plainly: IKKe Biochemical Assay. The protocol:
IKKe Biochemical Assay Test compounds were transferred into Labcyte polypropylene 384 well plates ([…]-25) and diluted to 3 mM using DMSO. 3 mM test compounds were dispensed using Labcyte ECHO dose response module into Greiner 784075 plates (columns 3-12 and 13-22, 10 point 1:4) so that high concentration was 30 uM final. 100 uM of a reference compound (1 uM final high concentration). Backfilling was performed if necessary so that all wells contain 1% DMSO final: add 75 nl DMSO/well into columns 1, 2 and 24 using Labcyte Echo. add 75 nl 1.0 mM staurosporine/well into column 23 using Labcyte Echo (10 uM final) add 4.5 ul enzyme/well using multidrop dispenser add 3 ul substrate/well using multidrop dispenser incubate at 25° C. for 90 min. add 7.5 ul 2× stop buffer read on labchip ez reader II using IKKε. job Raw data files were opened in the Caliper LabChip Reviewer program (Version 3.0.265.0 SP2) and peak assignments were adjusted to reflect “substrate first” with the software's post-run analysis options. A spline-fit baseline was applied using the software's analysis algorithm.

For assay [2], the target named is TBK1 (Homo sapiens (Human), UniProt Q9UHD2). Put plainly: TBK Biochemical Assay. The protocol: Example 106: TBK Biochemical Assay Test compounds were transferred into Labcyte polypropylene 384 well plates ([…]-25) and diluted to 3 mM using DMSO. 3 mM test compounds were dispensed using Labcyte ECHO dose response module into Greiner 784075 plates (columns 3-12 and 13-22, 10 point 1:4) so that high concentration was 30 uM final. 100 uM of a reference compound (1 uM final high concentration). Backfilling was performed if necessary so that all wells contain 1% DMSO final: add 75 nl DMSO/well into columns 1, 2 and 24 using Labcyte Echo. add 75 nl 1.0 mM staurosporine/well into column 23 using Labcyte Echo (10 uM final) add 4.5 ul enzyme/well using multidrop dispenser add 3 ul substrate/well using multidrop dispenser incubate at 25° C. in Heidolph incubator for 90 min. add 7.5 ul 2× stop buffer using multidrop dispenser read on labchip ez reader II using TBK1.job Raw data files were opened in the Caliper LabChip Reviewer program (Version 3.0.265.0 SP2) and peak assignments were adjusted to reflect “substrate first” with the software's post-run analysis options. A spline-fit baseline was applied using the software's analysis algorithm.

Structures can show the parent of a compound that is named as a salt.

TBK1, sequence (Q9UHD2 whole entry, species assumed): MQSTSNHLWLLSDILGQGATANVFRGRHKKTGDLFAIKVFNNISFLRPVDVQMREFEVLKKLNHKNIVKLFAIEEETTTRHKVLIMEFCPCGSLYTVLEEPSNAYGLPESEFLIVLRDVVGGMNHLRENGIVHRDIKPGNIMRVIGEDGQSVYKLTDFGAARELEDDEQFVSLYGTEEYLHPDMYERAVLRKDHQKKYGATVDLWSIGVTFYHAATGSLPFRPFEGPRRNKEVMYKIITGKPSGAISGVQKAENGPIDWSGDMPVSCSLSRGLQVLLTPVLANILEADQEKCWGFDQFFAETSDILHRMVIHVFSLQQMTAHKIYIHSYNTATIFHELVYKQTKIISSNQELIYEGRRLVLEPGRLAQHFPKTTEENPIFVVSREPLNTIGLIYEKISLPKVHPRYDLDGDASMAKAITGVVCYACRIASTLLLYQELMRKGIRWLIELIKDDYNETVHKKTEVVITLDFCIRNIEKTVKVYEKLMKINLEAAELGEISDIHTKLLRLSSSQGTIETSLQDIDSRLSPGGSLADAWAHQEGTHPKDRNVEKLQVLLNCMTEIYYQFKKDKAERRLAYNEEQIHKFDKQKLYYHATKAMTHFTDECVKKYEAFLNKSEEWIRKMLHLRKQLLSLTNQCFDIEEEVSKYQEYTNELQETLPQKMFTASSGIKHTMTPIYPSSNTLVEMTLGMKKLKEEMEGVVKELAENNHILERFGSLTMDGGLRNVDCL
IKKe, sequence (Q14164 whole entry, species assumed): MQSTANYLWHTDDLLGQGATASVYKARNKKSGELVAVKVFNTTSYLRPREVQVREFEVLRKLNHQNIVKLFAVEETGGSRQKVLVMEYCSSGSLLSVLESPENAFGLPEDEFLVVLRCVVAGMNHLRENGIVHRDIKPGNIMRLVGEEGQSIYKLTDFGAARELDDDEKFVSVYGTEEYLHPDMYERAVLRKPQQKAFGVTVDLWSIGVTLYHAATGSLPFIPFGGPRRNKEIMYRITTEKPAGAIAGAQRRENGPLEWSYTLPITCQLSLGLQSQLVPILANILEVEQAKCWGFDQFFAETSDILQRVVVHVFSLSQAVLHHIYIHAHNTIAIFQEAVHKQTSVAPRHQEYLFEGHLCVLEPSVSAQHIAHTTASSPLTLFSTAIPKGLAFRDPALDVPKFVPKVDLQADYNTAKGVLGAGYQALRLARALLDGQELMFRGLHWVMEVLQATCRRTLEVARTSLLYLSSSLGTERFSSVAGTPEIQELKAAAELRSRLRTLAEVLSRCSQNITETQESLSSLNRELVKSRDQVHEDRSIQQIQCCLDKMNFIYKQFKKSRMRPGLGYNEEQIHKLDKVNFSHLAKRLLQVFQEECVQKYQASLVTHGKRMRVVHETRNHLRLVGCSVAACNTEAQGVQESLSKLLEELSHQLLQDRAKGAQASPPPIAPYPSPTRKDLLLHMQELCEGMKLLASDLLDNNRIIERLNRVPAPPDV

On to `COc1nc(Nc2cc(-c3ccc(OC4CCNCC4(F)F)c(C#N)c3)ncn2)ccc1N1CCN(C)[C@H](C)C1` (stereo partly drawn) [Example 73, 2-[(3,3-difluoropiperidin-4-yl)oxy]-5-[6-({5-[(3R)-3,4-dimethylpiperazin-1-yl]-6-methoxypyridin-2-yl}amino)pyrimidin-4-yl]benzonitrile], for which the 50% inhibitory concentration (IC50) in assay [1] and in assay [2] was < 100 nM in each case.
For `COc1nc(Nc2cc(-c3ccc(OC4CCN(C(=O)c5cnco5)CC4)c(C#N)c3)ncn2)ccc1C(=O)N(C)C` [Example 43, 6-([6-[3-cyano-4-([1-[(1,3-oxazol-5-yl)carbonyl]piperidin-4-yl]oxy)phenyl]pyrimidin-4-yl]amino)-2-methoxy-N,N-dimethylpyridine-3-carboxamide], the IC50 in assay [1] and in assay [2] was < 100 nM each time.
Regarding `COc1nc(Nc2cc(-c3ccc(OC4CCN(C(=O)[C@H](C)O)CC4(F)F)c(C#N)c3)ncn2)ccc1N1CCN(C)[C@H](C)C1` (stereo partly drawn) [Example 74, 2-([3,3-difluoro-1-[(2S)-2-hydroxypropanoyl]piperidin-4-yl]oxy)-5-[6-([5-[(3R)-3,4-dimethylpiperazin-1-yl]-6-methoxypyridin-2-yl]amino)pyrimidin-4-yl]benzonitrile hydrochloride], the IC50 in assay [1] and in assay [2] was < 100 nM each time.
On to `COc1nc(Nc2cc(-c3ccc(OC4CCOCC4)c(C#N)c3)ncn2)ccc1C(=O)N1CC2CC(C1)O2` [Example 3, 5-(6-[[6-methoxy-5-([6-oxa-3-azabicyclo[3.1.1]heptan-3-yl]carbonyl)pyridin-2-yl]amino]pyrimidin-4-yl)-2-(oxan-4-yloxy)benzonitrile], for which the IC50 in assay [1] and in assay [2] was < 100 nM in each case.
As to `CN1CCN(c2ccc(Nc3cc(-c4ccc(OC5CCN(C)C5)c(C#N)c4)ncn3)nc2)CC1` (stereo not drawn) [Example 40, 5-(6-[[5-(4-methylpiperazin-1-yl)pyridin-2-yl]amino]pyrimidin-4-yl)-2-[(1-methylpyrrolidin-3-yl)oxy]benzonitrile], the IC50 in assay [1] and in assay [2] was 100 to 1000 nM in each case.
As for `COc1nc(Nc2cc(-c3ccc(OC4CCOCC4)c(C#N)c3)ncn2)ccc1C1CCN(CC(F)(F)F)CC1` [Example 27, 5-[6-([6-methoxy-5-[1-(2,2,2-trifluoroethyl)piperidin-4-yl]pyridin-2-yl]amino)pyrimidin-4-yl]-2-(oxan-4-yloxy)benzonitrile], the IC50 in assay [1] and in assay [2] was 100 to 1000 nM each time.
In the case of `COc1nc(Nc2cc(-c3ccc(OC4CCOCC4)c(C#N)c3)ncn2)ccc1C(=O)N1CC2CCC(C1)O2` [Example 5, 5-(6-((5-(8-oxa-3-azabicyclo[3.2.1]octane-3-carbonyl)-6-methoxypyridin-2-yl)amino)pyrimidin-4-yl)-2-((tetrahydro-2H-pyran-4-yl)oxy)benzonitrile], the IC50 in assay [1] and in assay [2] was < 100 nM each time.
Turning to `COc1nc(Nc2cc(-c3ccc(OC4CCOCC4)c(C#N)c3)ncn2)ccc1C(=O)N(C)CCO` [Example 2, 6-([6-[3-cyano-4-(oxan-4-yloxy)phenyl]pyrimidin-4-yl]amino)-N-(2-hydroxyethyl)-2-methoxy-N-methylpyridine-3-carboxamide], the IC50 in assay [1] and in assay [2] was < 100 nM throughout.
Take `COc1nc(Nc2cc(-c3ccc(OC4CCNCC4(F)F)c(C#N)c3)ncn2)ccc1N1CCN(C2COC2)CC1` (stereo not drawn) [Example 76, 2-[(3,3-difluoropiperidin-4-yl)oxy]-5-[6-({6-methoxy-5-[4-(oxetan-3-yl)piperazin-1-yl]pyridin-2-yl}amino)pyrimidin-4-yl]benzonitrile]: the IC50 in assay [1] and in assay [2] was < 100 nM in each case.
Regarding `COc1cc(Nc2cc(-c3ccc(OC4CCOCC4)c(C#N)c3)ncn2)ncc1N1CCN(C)CC1` [Example 33, 5-(6-[[4-methoxy-5-(4-methylpiperazin-1-yl)pyridin-2-yl]amino]pyrimidin-4-yl)-2-(oxan-4-yloxy)benzonitrile], the IC50 in assay [1] and in assay [2] was < 100 nM throughout.
With `COc1nc(Nc2cc(-c3ccc(O[C@H]4CCN(C(=O)c5cnn[nH]5)C[C@H]4F)c(C#N)c3)ncn2)ccc1N1CCN(C2COC2)CC1` [Example 79, 2-[[(3R,4S)-3-fluoro-1-[(1H-1,2,3-triazol-5-yl)carbonyl]piperidin-4-yl]oxy]-5-[6-([6-methoxy-5-[4-(oxetan-3-yl)piperazin-1-yl]pyridin-2-yl]amino)pyrimidin-4-yl]benzonitrile], the IC50 in assay [1] and in assay [2] was < 100 nM in each case.
Turning to `COc1nc(Nc2cc(-c3ccc(O[C@H]4CCNC[C@H]4F)c(C#N)c3)ncn2)ccc1C(=O)N(C)C` [Example 46, 6-[[6-(3-cyano-4-[[(3R,4S)-3-fluoropiperidin-4-yl]oxy]phenyl)pyrimidin-4-yl]amino]-2-methoxy-N,N-dimethylpyridine-3-carboxamide], the IC50 in assay [1] and in assay [2] was 100 to 1000 nM throughout.
For `C[C@@H](O)C(=O)N1CCC(Oc2ccc(-c3cc(Nc4ccc(N5CCN(C6COC6)CC5)cc4)ncn3)cc2C#N)C(F)(F)C1` (stereo partly drawn) [Example 86, 2-([3,3-difluoro-1-[(2R)-2-hydroxypropanoyl]piperidin-4-yl]oxy)-5-[6-([4-[4-(oxetan-3-yl)piperazin-1-yl]phenyl]amino)pyrimidin-4-yl]benzonitrile], the values for the IC50 in assay [1] and in assay [2] were 100 to 1000 nM and < 100 nM, respectively.
Take `COc1nc(Nc2cc(-c3ccc(OC4CCOCC4)c(C#N)n3)ncn2)ccc1C1CCN(C)CC1` [Example 25, 6-(6-[[6-methoxy-5-(1-methylpiperidin-4-yl)pyridin-2-yl]amino]pyrimidin-4-yl)-3-(oxan-4-yloxy)pyridine-2-carbonitrile]: the IC50 in assay [1] and in assay [2] was 1000 to 5000 nM in each case.
As to `COc1nc(Nc2cc(-c3ccc(O[C@@H]4CCN(C(=O)[C@H](C)O)CC4(F)F)c(C#N)c3)ncn2)ccc1C1CCN(C2COC2)CC1` [Example 94, 2-[[(4R)-3,3-difluoro-1-[(2S)-2-hydroxypropanoyl]piperidin-4-yl]oxy]-5-[6-([6-methoxy-5-[1-(oxetan-3-yl)piperidin-4-yl]pyridin-2-yl]amino)pyrimidin-4-yl]benzonitrile], the IC50 in assay [1] and in assay [2] was < 100 nM each time.
Turning to `COc1nc(Nc2cc(-c3ccc(OC4CCOCC4)c(C#N)c3)ncn2)ccc1C1CCN(C)C1` (stereo not drawn) [Example 20, 5-(6-[[6-methoxy-5-(1-methylpyrrolidin-3-yl)pyridin-2-yl]amino]pyrimidin-4-yl)-2-(oxan-4-yloxy)benzonitrile], the IC50 in assay [1] and in assay [2] was < 100 nM throughout.
In the case of `COc1nc(Nc2cc(-c3ccc(OC4CCOCC4)c(C#N)c3)ncn2)ccc1N1CCS(=O)(=O)CC1` [Example 10, 5-(6-[[5-(1,1-dioxo-1λ,4-thiomorpholin-4-yl)-6-methoxypyridin-2-yl]amino]pyrimidin-4-yl)-2-(oxan-4-yloxy)benzonitrile], the IC50 in assay [1] and in assay [2] was < 100 nM in each case.
`COc1nc(Nc2cc(-c3ccc(OC4CCN(C(=O)CO)CC4(F)F)c(C#N)c3)ncn2)ccc1C(=O)N(C)C` (stereo not drawn) [Example 49, 6-[[6-(3-cyano-4-[[3,3-difluoro-1-(2-hydroxyacetyl)piperidin-4-yl]oxy]phenyl)pyrimidin-4-yl]amino]-2-methoxy-N,N-dimethylpyridine-3-carboxamide]: the IC50 in assay [1] and in assay [2] was < 100 nM throughout.
Turning to `COc1nc(Nc2cc(-c3ccc(OC4CCNCC4)c(C#N)c3)ncn2)ccc1N1CCN(C)CC1` [Example 50, 5-(6-[[6-methoxy-5-(4-methylpiperazin-1-yl)pyridin-2-yl]amino]pyrimidin-4-yl)-2-(piperidin-4-yloxy)benzonitrile], the IC50 in assay [1] and in assay [2] was < 100 nM in each case.
In the case of `COc1nc(Nc2cc(-c3ccc(OC4CCN(C(=O)[C@H](C)O)CC4(F)F)c(C#N)c3)ncn2)ccc1N1CCN(C)[C@@H](C)C1` (stereo partly drawn) [Example 82, 2-([3,3-difluoro-1-[(2S)-2-hydroxypropanoyl]piperidin-4-yl]oxy)-5-[6-([5-[(3S)-3,4-dimethylpiperazin-1-yl]-6-methoxypyridin-2-yl]amino)pyrimidin-4-yl]benzonitrile], the IC50 in assay [1] and in assay [2] was < 100 nM throughout.
`COc1nc(Nc2cc(-c3ccc(O[C@H]4CCN(C(=O)c5cnn[nH]5)C[C@H]4F)c(C#N)c3)ncn2)ccc1N1CCN(C)CC1` [Example 57, 2-[[(3R,4S)-3-fluoro-1-[(1H-1,2,3-triazol-5-yl)carbonyl]piperidin-4-yl]oxy]-5-(6-[[6-methoxy-5-(4-methylpiperazin-1-yl)pyridin-2-yl]amino]pyrimidin-4-yl)benzonitrile]: the IC50 in assay [1] and in assay [2] was < 100 nM throughout.

As a reminder, the IC50 is the concentration that gives 50% inhibition.
